From patent US10723708B2, “Anti-HCMV compositions and methods” (FORGE Life Science, LLC, priority 2014, dated 2020)

System: human cytomegalovirus (HCMV)
Test: Antiviral activity against HCMV, virus yield/replication assay in MRC5 cells
Type: cell-based
Settings: Human betaherpesvirus 5; infected human MRC5 cells; virus yield in supernatant at 96 hours / four days, read by IE protein expression in fresh MRC5 cells
Procedure: Assessing Antiviral Activity Against Human Cytomegalovirus (HCMV)
To assess their antiviral activity, some compounds were tested against human cytomegalovirus (HCMV) in vitro. Human MRC5 cells were grown in Dulbecco's Modified Eagle Medium (DMEM) supplemented with 10% fetal bovine serum (FBS) and infected with an HCMV variant expressing GFP tagged pUL99 (the product of late viral UL99 gene) at a multiplicity of 1 infectious unit (IU) per cell. One hour later, medium of the cells was replaced with fresh medium containing the indicated compounds at 50, 25, 12.5, 6.25, 3.13, 1.56, 0.78, 0.39 μM or the carrier in which the compounds are dissolved (DMSO). Final concentration of DMSO was 0.5% in each treatment. Virus yield in the culture supernatant was determined at 96 hours after infection by infecting fresh MRC5 cells and assaying viral IE1 protein expression. Results were plotted using either Prism Software or CDD Vault (CDD Vault was developed by Collaborative Drug Discovery, Inc., 1633 Bayshore Hwy, Suite 342, Burlingame, Calif. 94010) in order to calculate IC50s.
Alternatively, antiviral efficacy of some compounds was assessed by inhibition of HCMV replication during in vitro replication assays. Briefly, confluent monolayers of MRC5 fibroblasts in a 96 well plate format (˜1.0×10^4 cells/well) were infected with an AD169 strain of HCMV for one hour. After the initial incubation hour, virus containing media was removed and 100 ul of media with sequential dilutions of FORGE compounds added to each well. The concentrations of the FORGE compounds were 50 μM, 25 μM, […], 6.25 μM, 3.125 μM, 1.56 μM, and 0.78125 μM as well as a vehicle control (0.5% DMSO). The concentration of DMSO was constant between all conditions. Assays were performed in duplicate. Infected plates were returned to the incubator and the viral infection was allowed to progress for four days. On the fourth day, 50 μL of cell free supernatant was collected from each well and used to infect a new 96 well plate seeded with a confluent monolayer of MRC5 fibroblasts along with 50 μL of media to bring the total volume to 100 μL. The next day the media was removed and the infected monolayer was fixed with cold methanol, and Immediate Early proteins were detected by immunofluorescence assays to quantify the number of cells that were infected with HCMV. IE gene expression was quantified within five random fields within each well and corresponding numbers were utilized to determine viral replication. Results from each well were normalized to the vehicle control well so as to allow a percent reduction from no drug treatment to be calculated. Results were plotted using either Prism Software or CDD Vault in order to calculate IC50s.

Row | Structure (SMILES) | IC50
1 | COc1ccc(C(C)CCNc2cnc3ccccc3c2)cc1 (stereo not drawn) [Example 1] | 25 to 50 µM
2 | COc1ccc(C(C)CC(=O)Nc2cnc3ccccc3c2)cc1 (stereo not drawn) [Example 2] | > 50 µM
3 | COc1cccc(C(C)CCNc2cnc3ccccc3c2)c1 (stereo not drawn) [Example 3] | 25 to 50 µM
4 | COc1cccc(C(C)CC(=O)Nc2cnc3ccccc3c2)c1 (stereo not drawn) [Example 4] | 21.2 ± 14.5 µM
5 | CC(CCNc1cnc2ccccc2c1)c1ccccc1Cl (stereo not drawn) [Example 5] | 18.6 ± 4.62 µM
6 | CC(CC(=O)Nc1cnc2ccccc2c1)c1ccccc1Cl (stereo not drawn) [Example 6] | 21.1 ± 14.5 µM
7 | CC(CCNc1cnc2ccccc2c1)c1ccccc1 (stereo not drawn) [Example 7] | > 50 µM
8 | CC(CC(=O)Nc1cnc2ccccc2c1)c1ccccc1 (stereo not drawn) [Example 8] | 3.03 ± 0.69 µM
9 | COc1ccc(C(C)CCNc2ccc3ncccc3c2)cc1 (stereo not drawn) [Example 9] | 2.41 ± 0.04 µM
10 | COc1ccc(C(C)CC(=O)Nc2ccc3ncccc3c2)cc1 (stereo not drawn) [Example 10] | 5.82 ± 1.98 µM
11 | COc1cccc(C(C)CCNc2ccc3ncccc3c2)c1 (stereo not drawn) [Example 11] | 5.75 ± 2.47 µM
12 | COc1cccc(C(C)CC(=O)Nc2ccc3ncccc3c2)c1 (stereo not drawn) [Example 12] | 3.34 ± 1.45 µM
13 | COc1ccccc1C(C)CCNc1ccc2ncccc2c1 (stereo not drawn) [Example 13] | 23.4 ± 0.6 µM
14 | COc1ccccc1C(C)CC(=O)Nc1ccc2ncccc2c1 (stereo not drawn) [Example 14] | 2.2 ± 1.32 µM
15 | COc1ccc(C(C)CCNc2cccc3cccnc23)cc1 (stereo not drawn) [Example 15] | 3.27 ± 0.41 µM
16 | COc1ccc(C(C)CC(=O)Nc2cccc3cccnc23)cc1 (stereo not drawn) [Example 16] | 26.9 ± 11.5 µM
17 | COc1cccc(C(C)CCNc2cccc3cccnc23)c1 (stereo not drawn) [Example 17] | 2.69 ± 0.94 µM
18 | COc1cccc(C(C)CC(=O)Nc2cccc3cccnc23)c1 (stereo not drawn) [Example 18] | > 50 µM
19 | COc1ccccc1C(C)CCNc1cccc2cccnc12 (stereo not drawn) [Example 19] | 1.28 ± 0.16 µM
20 | COc1ccccc1C(C)CC(=O)Nc1cccc2cccnc12 (stereo not drawn) [Example 20] | 19.7 ± 14.7 µM
21 | CC(CCNc1cccc2cccnc12)c1ccccc1Cl (stereo not drawn) [Example 21] | 1.2 ± 0.52 µM

Row | Structure (SMILES) | IC50
22 | CC(CC(=O)Nc1cccc2cccnc12)c1ccccc1Cl (stereo not drawn) [Example 22] | 1.28 ± 1.82 µM
23 | Cc1ccccc1C(C)CCNc1cccc2cccnc12 (stereo not drawn) [Example 23] | 2.01 ± 0.71 µM
24 | Cc1ccccc1C(C)CC(=O)Nc1cccc2cccnc12 (stereo not drawn) [Example 24] | > 50 µM
25 | COc1ccccc1C(C)C(F)CNc1cccc2cccnc12 (stereo not drawn) [Example 25] | 3.73 ± 0.46 µM
26 | COc1ccccc1C(C)C(F)C(=O)Nc1cccc2cccnc12 (stereo not drawn) [Example 26] | 5.38 ± 3.93 µM
27 | COc1ccccc1C(C)C(O)CNc1cccc2cccnc12 (stereo not drawn) [Example 27] | 28.5 ± 2.68 µM
28 | COc1ccccc1C(C)C(C)CNc1cccc2cccnc12 (stereo not drawn) [Example 28] | 2.89 ± 0.95 µM
29 | COc1ccccc1C(C)C(C)C(=O)Nc1cccc2cccnc12 (stereo not drawn) [Example 29] | 11.5 ± 7.71 µM
30 | COc1ccccc1CCCNc1cccc2cccnc12 [Example 30] | 12.1 ± 8.44 µM
31 | COc1ccccc1CCC(=O)Nc1cccc2cccnc12 [Example 31] | > 50 µM
32 | CCC(CCNc1cccc2cccnc12)c1ccccc1OC (stereo not drawn) [Example 32] | 2.25 ± 0.33 µM
33 | CCC(CC(=O)Nc1cccc2cccnc12)c1ccccc1OC (stereo not drawn) [Example 33] | 5.3 ± 0.31 µM
34 | CC(CCNc1cccc2cccnc12)c1ccccn1 (stereo not drawn) [Example 34] | > 50 µM
35 | CC(CC(=O)Nc1cccc2cccnc12)c1ccccn1 (stereo not drawn) [Example 35] | > 50 µM
36 | COc1ccccc1C(C)CCn1ccc2ccccc21 (stereo not drawn) [Example 36] | > 50 µM
37 | COc1ccccc1C(C)CC(=O)n1ccc2ccccc21 (stereo not drawn) [Example 37] | > 50 µM
38 | COc1ccccc1C(C)CCNc1cccc2nccnc12 (stereo not drawn) [Example 38] | 3.61 ± 0.54 µM
39 | COc1ccccc1C(C)CC(=O)Nc1cccc2nccnc12 (stereo not drawn) [Example 39] | > 50 µM
40 | COc1ccccc1C(C)CCNc1cccc2ccccc12 (stereo not drawn) [Example 40] | 2.83 ± 0.28 µM
41 | COc1ccccc1C(C)CC(=O)Nc1cccc2ccccc12 (stereo not drawn) [Example 41] | 29.2 ± 17.8 µM
42 | COc1ccccc1C(C)CCNc1cccc2[nH]ccc12 (stereo not drawn) [Example 42] | 1.32 ± 0.84 µM

Row | Structure (SMILES) | IC50
43 | COc1ccccc1C(C)CC(=O)Nc1cccc2[nH]ccc12 (stereo not drawn) [Example 43] | 12.5 ± 4.14 µM
44 | COc1ccccc1C(C)CCNc1ccccc1 (stereo not drawn) [Example 44] | > 50 µM
45 | COc1ccccc1C(C)CC(=O)Nc1ccccc1 (stereo not drawn) [Example 45] | > 50 µM
46 | COc1ccc(Br)cc1C(C)CCNc1cccc2cccnc12 (stereo not drawn) [Example 46] | 21.7 ± 2.48 µM
47 | COc1ccc(Br)cc1C(C)CC(=O)Nc1cccc2cccnc12 (stereo not drawn) [Example 47] | 5.88 ± 1.93 µM
48 | CC(CCNc1cccc2cccnc12)c1ccccc1 (stereo not drawn) [Example 48] | > 50 µM
49 | CC(CC(=O)Nc1cccc2cccnc12)c1ccccc1 (stereo not drawn) [Example 49] | > 50 µM
50 | CC(CCNc1cccc2cccnc12)c1ccccc1Br (stereo not drawn) [Example 50] | 2.92 ± 1.26 µM
51 | CC(CCNc1cccc2cccnc12)c1c(Cl)cccc1Cl (stereo not drawn) [Example 51] | 1.94 ± 0.51 µM
52 | CC(CCOc1cccc2cccnc12)c1ccccc1Cl (stereo not drawn) [Example 52] | 1.98 ± 0.68 µM
53 | CC(CCNc1ccc(Br)c2cccnc12)c1ccccc1 (stereo not drawn) [Example 53] | 11.6 ± 0.36 µM
54 | CC(CNc1cccc2nccnc12)C(C)c1ccc(Cl)cc1Cl (stereo not drawn) [Example DV7016] | 23.1 µM
55 | CC(CNc1cccc2nccnc12)C(C)c1cc(Cl)ccc1Cl (stereo not drawn) [Example FLS-114] | 6.4 µM
56 | CC(CNc1cccc2[nH]ccc12)C(C)c1ccccc1Cl (stereo not drawn) [Example FLS-116] | 3.5 µM
57 | CC(CNc1cccc2nccnc12)c1ccccc1Cl (stereo not drawn) [Example FLS-117] | 3.2 µM
58 | CC(CNc1cccc2nccnc12)c1cc(Cl)ccc1Cl (stereo not drawn) [Example FLS-118] | 3.2 µM
59 | CC(CNc1cccc2nccnc12)c1cc(Cl)cc(Cl)c1 (stereo not drawn) [Example FLS-119] | 2.7 µM
60 | CC(CNc1cccc2[nH]ccc12)c1ccccc1Cl (stereo not drawn) [Example FLS-120] | 5 µM
61 | CC(CCNc1ccc(Br)c2cccnc12)c1ccccc1Cl (stereo not drawn) [FH000006-K-6] | 7.9 µM
62 | CC(CCC(=O)Nc1cccc2cccnc12)c1ccccc1Cl (stereo not drawn) [FH000006-K-8-A] | 4.5 µM
63 | CC(CCCNc1cccc2cccnc12)c1ccccc1Cl (stereo not drawn) [FH000006-K-8] | 6.3 µM
